Data published in patent US8916599B2, “1H-benz imidazole-5-carboxamides as anti-inflammatory agents” (Orexo AB, priority 2008, dated 2014).

Target: T1, recombinant human mPGES-1 (Homo sapiens, UniProt O14684)
T1 construct: made in house; host or cells: Rosetta E. coli (microsomal/membrane fraction)
T1 sequence (O14684 1-152): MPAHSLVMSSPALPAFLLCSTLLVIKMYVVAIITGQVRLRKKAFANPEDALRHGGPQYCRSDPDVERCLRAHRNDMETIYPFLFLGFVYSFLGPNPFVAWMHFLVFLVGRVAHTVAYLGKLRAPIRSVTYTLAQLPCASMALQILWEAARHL
Test: mPGES-1 inhibition test (microsomes, PGH2 substrate, HTRF detection of PGE2)
Type: biochemical
Conditions: inhibition of mPGES-1 at 10 μM
Method in brief: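 Microsomes from E. coli Rosetta expressing the enzyme, in 0.1 M KPi pH 7.4 with 2.5 mM GSH, were preincubated 25 min at room temperature with inhibitor in DMSO. PGH2 was added, the reaction stopped after one minute with acidified FeCl2, and PGE2 quantified by HTRF after 750-fold dilution.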

Structure (SMILES)	inhibition at 10 µM [%]
NCCn1c(Nc2c(Cl)cccc2Cl)nc2cc(C(=O)Nc3cc(Cl)ccn3)ccc21 [Example 211, 2-(2,6-Dichloro-phenylamino)-1-(2-amino-ethyl)-1H-benzimidazole-5-carboxylic acid (4-chloro-pyridin-2-yl)-amide (trifluoroacetate)]	100
CNCCn1c(Nc2c(Cl)cccc2Cl)nc2cc(C(=O)Nc3cc(Cl)ccn3)ccc21 [Example 212, 2-(2,6-Dichloro-phenylamino)-1-(2-methylamino-ethyl)-1H-benzimidazole-5-carboxylic acid (4-chloro-pyridin-2-yl)-amide (trifluoroacetate)]	100
O=C(NC1CCCCCC1)c1ccc2[nH]c(Nc3c(Cl)cccc3Cl)nc2c1 [Example 214, 2-(2,6-Dichloro-phenylamino)-1H-benzimidazole-5-carboxylic acid cycloheptyl-amide]	100
CC1CCC(NC(=O)c2ccc3[nH]c(Nc4c(Cl)cccc4Cl)nc3c2)CC1 (stereo not shown) [Example 215, 2-(2,6-Dichloro-phenylamino)-1H-benzimidazole-5-carboxylic acid (4-methyl-cyclohexyl)-amide]	96
CO[C@H]1CC[C@H](NC(=O)c2ccc3[nH]c(Nc4c(Cl)cccc4Cl)nc3c2)CC1 [Example 216, 2-(2,6-Dichloro-phenylamino)-1H-benzimidazole-5-carboxylic acid ((1R,4R)-4-methoxy-cyclohexyl)-amide]	64
O=C(NCC1CCOCC1)c1ccc2[nH]c(Nc3c(Cl)cccc3Cl)nc2c1 [Example 217, 2-(2,6-Dichloro-phenylamino)-1H-benzimidazole-5-carboxylic acid (tetrahydro-pyran-4-ylmethyl)-amide]	54
CC1CC(NC(=O)c2ccc3[nH]c(Nc4c(Cl)cccc4Cl)nc3c2)CC(C)(C)C1 (stereo not shown) [Example 218, 2-(2,6-Dichloro-phenylamino)-1H-benzimidazole-5-carboxylic acid (3,3,5-trimethyl-cyclohexyl)-amide]	100
O=C(NCC1CCCC1)c1ccc2[nH]c(Nc3c(Cl)cccc3Cl)nc2c1 [Example 219, 2-(2,6-Dichloro-phenylamino)-1H-benzimidazole-5-carboxylic acid cyclopentylmethyl-amide]	100
O=C(NCc1ncccc1C(F)(F)F)c1ccc2[nH]c(Nc3c(Cl)cccc3Cl)nc2c1 [Example 220, 2-(2,6-Dichloro-phenylamino)-1H-benzimidazole-5-carboxylic acid (3-trifluoromethyl-pyridin-2-ylmethyl)-amide]	96
O=C(NCc1cc(C(F)(F)F)ccn1)c1ccc2[nH]c(Nc3c(Cl)cccc3Cl)nc2c1 [Example 221, 2-(2,6-Dichloro-phenylamino)-1H-benzimidazole-5-carboxylic acid (4-trifluoromethyl-pyridin-2-ylmethyl)-amide]	87
O=C(NCc1ccc(C(F)(F)F)cn1)c1ccc2[nH]c(Nc3c(Cl)cccc3Cl)nc2c1 [Example 222, 2-(2,6-Dichloro-phenylamino)-1H-benzimidazole-5-carboxylic acid (5-trifluoromethyl-pyridin-2-ylmethyl)-amide]	74
O=C(NCc1cccc(C(F)(F)F)n1)c1ccc2[nH]c(Nc3c(Cl)cccc3Cl)nc2c1 [Example 223, 2-(2,6-Dichloro-phenylamino)-1H-benzimidazole-5-carboxylic acid (6-trifluoromethyl-pyridin-2-ylmethyl)-amide]	87
CS(=O)(=O)c1cccc(NC(=O)c2ccc3[nH]c(Nc4c(Cl)cccc4Cl)nc3c2)c1 [Example 224, 2-(2,6-Dichloro-phenylamino)-1H-benzimidazole-5-carboxylic acid (3-methanesulfonyl-phenyl)-amide]	100
O=C(NC1CCC(F)(F)CC1)c1ccc2[nH]c(Nc3c(Cl)cccc3Cl)nc2c1 [Example 225, 2-(2,6-Dichloro-phenylamino)-1H-benzimidazole-5-carboxylic acid (4,4-difluoro-cyclohexyl)-amide]	80
O=C(NC1CCCC(O)C1)c1ccc2[nH]c(Nc3c(Cl)cccc3Cl)nc2c1 (stereo not shown) [Example 226, 2-(2,6-Dichloro-phenylamino)-1H-benzimidazole-5-carboxylic acid (3-hydroxy-cyclohexyl)-amide]	64
O=C(NCC1CCCOC1)c1ccc2[nH]c(Nc3c(Cl)cccc3Cl)nc2c1 (stereo not shown) [Example 227, 2-(2,6-Dichloro-phenylamino)-1H-benzimidazole-5-carboxylic acid (tetrahydro-pyran-3-ylmethyl)-amide]	77
O=C(NC1CCCCC1C(F)(F)F)c1ccc2[nH]c(Nc3c(Cl)cccc3Cl)nc2c1 (stereo not shown) [Example 228, 2-(2,6-Dichloro-phenylamino)-1H-benzimidazole-5-carboxylic acid (2-trifluoromethyl-cyclohexyl)-amide]	86

Structure (SMILES)	inhibition at 10 µM [%]
O=C(NC1CCCC(C(F)(F)F)C1)c1ccc2[nH]c(Nc3c(Cl)cccc3Cl)nc2c1 (stereo not shown) [Example 229, 2-(2,6-Dichloro-phenylamino)-1H-benzimidazole-5-carboxylic acid (3-trifluoromethyl-cyclohexyl)-amide]	91
O=C(NC1CCC(C(F)(F)F)CC1)c1ccc2[nH]c(Nc3c(Cl)cccc3Cl)nc2c1 (stereo not shown) [Example 230, 2-(2,6-Dichloro-phenylamino)-1H-benzimidazole-5-carboxylic acid (4-trifluoromethyl-cyclohexyl)-amide]	99
N#CC1(NC(=O)c2ccc3[nH]c(Nc4c(Cl)cccc4Cl)nc3c2)CCCCC1 [Example 231, 2-(2,6-Dichloro-phenylamino)-1H-benzimidazole-5-carboxylic acid (1-cyano-cyclohexyl)-amide]	86
O=C(NCCc1cccnc1)c1ccc2[nH]c(Nc3c(Cl)cccc3Cl)nc2c1 [Example 232, 2-(2,6-Dichloro-phenylamino)-1H-benzimidazole-5-carboxylic acid (2-pyridin-3-yl-ethyl)-amide]	91
O=C(NCCc1ccncc1)c1ccc2[nH]c(Nc3c(Cl)cccc3Cl)nc2c1 [Example 233, 2-(2,6-Dichloro-phenylamino)-1H-benzimidazole-5-carboxylic acid (2-pyridin-4-yl-ethyl)-amide]	67
O=C(NCC1CCCO1)c1ccc2[nH]c(Nc3c(Cl)cccc3Cl)nc2c1 (stereo not shown) [Example 234, 2-(2,6-Dichloro-phenylamino)-1H-benzimidazole-5-carboxylic acid (tetrahydro-furan-2-ylmethyl)-amide]	77
O=C(NCc1ccccn1)c1ccc2[nH]c(Nc3c(Cl)cccc3Cl)nc2c1 [Example 235, 2-(2,6-Dichloro-phenylamino)-1H-benzimidazole-5-carboxylic acid (pyridin-2-ylmethyl)-amide]	79
O=C(NCc1ccncc1)c1ccc2[nH]c(Nc3c(Cl)cccc3Cl)nc2c1 [Example 236, 2-(2,6-Dichloro-phenylamino)-1H-benzimidazole-5-carboxylic acid (pyridin-4-ylmethyl)-amide]	83
Cn1c(Nc2c(Cl)cccc2Cl)nc2cc(C(=O)NC3CCCCC3O)ccc21 (stereo not shown) [Example 237, 2-(2,6-Dichloro-phenylamino)-1-methyl-1H-benzimidazole-5-carboxylic acid (2-hydroxy-cyclohexyl)-amide]	87
Cn1c(Nc2c(Cl)cccc2Cl)nc2cc(C(=O)NC3CCCCCC3)ccc21 [Example 238, 2-(2,6-Dichloro-phenylamino)-1-methyl-1H-benzimidazole-5-carboxylic acid cycloheptylamide]	100
CC1CCC(NC(=O)c2ccc3c(c2)nc(Nc2c(Cl)cccc2Cl)n3C)CC1 (stereo not shown) [Example 239, 2-(2,6-Dichloro-phenylamino)-1-methyl-1H-benzimidazole-5-carboxylic acid (4-methyl-cyclohexyl)-amide]	96
CO[C@H]1CC[C@H](NC(=O)c2ccc3c(c2)nc(Nc2c(Cl)cccc2Cl)n3C)CC1 [Example 240, 2-(2,6-Dichloro-phenylamino)-1-methyl-1H-benzimidazole-5-carboxylic acid (trans-4-methoxy-cyclohexyl)-amide]	80
CC1CC(NC(=O)c2ccc3c(c2)nc(Nc2c(Cl)cccc2Cl)n3C)CC(C)(C)C1 (stereo not shown) [Example 241, 2-(2,6-Dichloro-phenylamino)-1-methyl-1H-benzimidazole-5-carboxylic acid (3,3,5-trimethyl-cyclohexyl)-amide]	100
CC(NC(=O)c1ccc2c(c1)nc(Nc1c(Cl)cccc1Cl)n2C)c1ccccn1 (stereo not shown) [Example 242]	70
Cn1c(Nc2c(Cl)cccc2Cl)nc2cc(C(=O)NCC3CCCC3)ccc21 [Example 243, 2-(2,6-Dichloro-phenylamino)-1-methyl-1H-benzimidazole-5-carboxylic acid cyclopentylmethyl-amide]	93
Cn1c(Nc2c(Cl)cccc2Cl)nc2cc(C(=O)NCc3ncccc3C(F)(F)F)ccc21 [Example 244, 2-(2,6-Dichloro-phenylamino)-1-methyl-1H-benzimidazole-5-carboxylic acid (3-trifluoromethyl-pyridin-2-ylmethyl)-amide]	96
Cn1c(Nc2c(Cl)cccc2Cl)nc2cc(C(=O)NCc3cc(C(F)(F)F)ccn3)ccc21 [Example 245, 2-(2,6-Dichloro-phenylamino)-1-methyl-1H-benzimidazole-5-carboxylic acid (4-trifluoromethyl-pyridin-2-ylmethyl)-amide]	97
